Experimental data as given in PMC4640093, “Lipophilic prodrugs of nucleoside triphosphates as biochemical probes and potential antivirals” (Nature Communications, 2015).

Columns and labels:
[1] = system: pig liver esterase (PLE); experiment: Enzymatic hydrolysis with pig liver esterase (PLE) in PBS; type: in vitro ADME; conditions: PLE in PBS pH 7.3, 37 °C; for t1/2(1) PLE: removal of first masking unit (half-lives of 3); for t1/2(2) PLE: second hydrolysis step, half-lives of intermediate 4
Procedure: Furthermore, 140 μl of the 6.0 mM solution was diluted with 105 μl DMSO-d6 and 700 μl 50 mM PBS buffer. The reaction was started by addition of 52.5 μl of PLE in PBS buffer (3 mg ml^−1) and the mixture was incubated at 37 °C in a thermomixer. At different times, aliquots (125 μl) were taken and treated as follows: (a) for 3a–g,l,m and 4a,e the reaction was stopped by addition to 132.5 μl MeOH. […] (b) For 3h,i,k,n and 4j, the sample was directly frozen in liquid nitrogen.

[2] = Enzyme-catalysed hydrolysis in CEM cell extracts; conditions: human CEM cell extract, 37 °C
Procedure: The hydrolysis mixtures were analysed by means of analytical RP-18-HPLC.
A volume of 10 μl of the appropriate 50 mM DMSO-d6 stock solution was diluted to 6.0 mM hydrolysis solution by addition of 73.3 μl DMSO-d6. Seven different samples including 10 μl water and 10 μl hydrolysis solution were prepared. The reaction was started by addition of 50 μl human CEM cell extract and the mixture was incubated at 37 °C for different time periods of hydrolysis. The work-up depended on the particular compound: (a) for 3a–f,l,m,p and 4a,e the reactions were stopped by addition of 150 μl MeOH. The solution was kept on ice for 5 min followed by centrifugation for 5 min (13,000 r.p.m.). The supernatants were filtered (Chromafil RC-20/15 MS, 0.2 μm) and stored in liquid nitrogen. (b) For 3g–i,k,n and 4j, the samples were directly frozen in liquid nitrogen. The solution was defrosted followed by ultrasonication for 10 min. After centrifugation for 5 min the supernatants were filtered (Chromafil AO-20/3, 0.2 μm) and stored at −196 °C. (c) For 3j the mixture was diluted with 70 μl THF (HPLC grade) and frozen in liquid nitrogen followed by defrosting, ultrasonication, centrifugation, filtration and stored as described for (b). Samples were defrosted and 50–80 μl were subjected to HPLC analysis.
Human CD4^+ T-lymphocyte CEM cells were grown in RPMI-1640-based cell culture medium to a final density of ∼3·10^6 cells ml^−1. Then, cells were centrifuged for 10 min at 1,250 r.p.m. at 4 °C, washed twice with cold PBS and the pellet was resuspended at 10^8 cells ml^−1 and sonicated (Hielscher Ultrasound Techn., 100% amplitude, three·times for 10 s) to destroy cell integrity. The resulting cell suspension was then centrifuged at 10,000 r.p.m. to remove cell debris, and the supernatant divided into aliquots before being frozen at −80 °C and used.

[3] = system: CD4+ T-cell (CEM); experiment: Cytotoxicity: inhibition of CEM cell proliferation; type: cell-based, human; conditions: 50% cytostatic concentration, mean±s.d., n=2–3
[4] = system: HIV-2(ROD); experiment: Anti-HIV activity assay, HIV-2 in wild-type CEM/0 cells; type: cell-based; conditions: read-out: EC50 CEM HIV-2
Procedure: (§1) Inhibition of HIV-1(IIIB)- and HIV-2(ROD)-induced cytopathicity in wild-type CEM/0 and TK-deficient CEM/TK^− cell cultures was measured in microtitre 96-well plates containing ∼3 × 10^5 CEM cells ml^−1 infected with 100 CCID50 of HIV per millilitre and containing appropriate dilutions of the test compounds. After 4−5 days of incubation at 37 °C in a CO2-controlled humidified atmosphere, CEM giant (syncytium) cell formation was examined microscopically. The EC50 (50% effective concentration) was defined as the compound concentration required to inhibit HIV-induced giant cell formation by 50%.

[5] = target: T1, HIV RT (Human immunodeficiency virus type 1 group M subtype B, UniProt P03366); experiment: Primer extension assay with HIV reverse transcriptase using PLE hydrolysate; type: biochemical; conditions: hydrolysate after complete consumption of prodrug and intermediate; 2.5 μM, 37 °C, 10 min
T1 construct: Primer extension assays with HIV reverse transcriptase; purchased Roboklon
Procedure: To confirm the prodrug concept and thus the direct successful release of the biologically active triphosphate metabolite, the prodrug 3e was exposed to PLE and the hydrolysis monitored with RP-18-HPLC. After complete consumption of 3e as well as its intermediate 4e the solvents were removed. For the template/primer extension assay (Fig. 4a), HIV RT was incubated with the PLE hydrolysate as such (T*) or with the PLE hydrolysate in the additional presence of dCTP (T*, C), or dCTP+dGTP (T*, C, G) or all natural 2′-deoxynucleotides (N*). […] In addition, TriPPPro-TTP 3r was synthesized (Fig. 5) and also investigated in the same way. […] The primer could be fully extended till 30 nt when T* was added in the presence of dCTP and dGTP, as also the N* and N samples could.
The used polymerase HIV RT was obtained from Roboklon. The primer and template were purchased from Life Technologies.
The primer extension assays were performed under the following conditions:
The primer was labelled using [γ^32P]-ATP according to standard techniques. After 5-min incubation at 95 °C in 20 mM Tris-HCl (pH 7.6) and 50 mM NaCl, the hybridization/annealing of the primer to the template strand was achieved by a cooling phase from 95 to 20 °C over 3 h. […]

[6] = Chemical hydrolysis in PBS, pH 7.3; type: physicochemical; conditions: for t1/2(1) PBS, pH=7.3: removal of first masking unit (half-lives of 3); for t1/2(1) PBS, pH=7.3 / t1/2(2) PBS, pH=7.3: PBS pH 7.3, 37 °C; for t1/2(2) PBS, pH=7.3: second hydrolysis step, half-lives of intermediate 4 to give d4TTP 19
Procedure: Stock solutions (50 mM in DMSO-d6) of the appropriate compounds were prepared. After dilution of 11 μl with 100 μl Millipore water and 189 μl DMSO-d6 to 1.9 mM hydrolysis solutions the reaction was started by the addition of 300 μl PBS (50 mM, pH 7.3). The solution was incubated at 37 °C in a thermomixer. An initial aliquot (25 μl) was taken directly and analysed by analytical HPLC at 265–266 nm. Further aliquots were taken for monitoring the kinetic hydrolysis. The exponential decay curves (pseudo-first order) based on absolute integral values were calculated with commercially available software (OriginPro 9.0G) and yielded the half-lives t1/2(1) and t1/2(2) of the prodrugs via one determination.

[7] = system: HIV-1(IIIB); experiment: Anti-HIV activity assay, HIV-1 in wild-type CEM/0 cells; type: cell-based; conditions: HIV-induced giant cell formation, mean±s.d., n=2–3
Procedure: as §1

[8] = system: HIV-2(ROD); experiment: Anti-HIV activity assay, HIV-2 in TK-deficient CEM/TK− cells; type: cell-based; conditions: thymidine kinase-deficient CEM/TK− cells, mean±s.d., n=2–3
Procedure: as §1

[9] = Cytotoxicity: inhibition of CEM cell proliferation; type: cell-based, human; conditions: human, CEM cells (CD4+ T-cells), 50% cytostatic concentration, mean±s.d., n=2–3
[10] = wild-type CEM cells, HIV-induced giant cell formation, mean±s.d., n=2–3

| Structure (SMILES) | t1/2(1) PLE [1] [min] | t1/2(2) PLE [1] [h] | t1/2(1) CEM [2] [h] | CC50 [3] [µM] | EC50 [4, 10] [nM] | primer extension by HIV RT with PLE hydrolysate of the prodrug [5] | t1/2(1) PBS, pH=7.3 [6] [h] | t1/2(2) PBS, pH=7.3 [6] [h] | EC50 [7] [nM] | EC50 [8] [nM] | CC50 [9] [µM] | EC50 ([4]; Human immunodeficiency virus 2, CCRF-CEM) [nM] | time in which amount of thymine doubles (cleavage of the glycosidic bond) ([6]; long chemical hydrolysis time periods) [h] | EC50 ([7]; Human immunodeficiency virus 1, IIIB, CCRF-CEM) [nM] | EC50 ([8]; Human immunodeficiency virus 2) [nM] |
| --- | --- | --- | --- | --- | --- | --- | --- | --- | --- | --- | --- | --- | --- | --- | --- |
| CCCCCCCCC(=O)Oc1ccc(COP(=O)(OCc2ccc(OC(=O)CCCCCCCC)cc2)OP(=O)(O)OP(=O)(O)OC[C@@H]2C=C[C@H](n3cc(C)c(=O)[nH]c3=O)O2)cc1 [3e, γ-Bis-(4-nonanoyloxybenzyl)-d4TTP] | 0.78 | 1.6 | 2.5 | 52 ± 1 | 620 ± 300 | immediate DNA chain termination | 52 | 390 | 310 ± 10 | 2260 ± 1030 |  |  |  |  |  |
| CCCCCCCCOC(=O)Oc1ccc(COP(=O)(OCc2ccc(OC(=O)OCCCCCCCC)cc2)OP(=O)(O)OP(=O)(O)OC[C@@H]2C=C[C@H](n3cc(C)c(=O)[nH]c3=O)O2)cc1 [3m, γ-Bis-(4-octyloxycarbonyloxybenzyl)-d4TTP] | 7.2 | 17 | 2.6 | 51 ± 5 | 470 ± 100 |  | 82 | 590 | 360 ± 60 | 1260 |  |  |  |  |  |
| CCCCCCCCCCCCOC(=O)Oc1ccc(COP(=O)(OCc2ccc(OC(=O)OCCCCCCCCCCCC)cc2)OP(=O)(O)OP(=O)(O)OC[C@@H]2C=C[C@H](n3cc(C)c(=O)[nH]c3=O)O2)cc1 [3n, γ-Bis-(4-dodecyloxycarbonyloxybenzyl)-d4TTP] | 2640 |  | 3.0 | 41 ± 12 | 690 ± 210 |  | 99 | 631 | 500 ± 140 | 1260 |  |  |  |  |  |
| Cc1cn([C@H]2C=C[C@@H](CO)O2)c(=O)[nH]c1=O [d4T, 3′-deoxy-2′,3′-didehydrothymidine, reference compound] |  |  |  |  |  |  |  |  |  |  | 79 ± 3 | 890 | 63 | 330 ± 110 | 150000 ± 9000 |
